Patent publication US20190002436A1, “RESPIRATORY SYNCYTIAL VIRUS INHIBITORS” (MEDIVIR AB, priority 2015, published 2019)

tested on: RSV (Long); assay: RSV cytopathic effect (CPE)-based viral replication assay; type: cell-based, respiratory syncytial virus (RSV); details: HEp-2 cells infected with RSV Long at MOI 0.015; 3 days at 37° C.; cell viability by CellTiter-Glo luminescence; read-out: EC50 (nm)
Method: Example A: RSV Cytopathic Effect
Compounds of the invention are initially tested in a cytopathic effect (CPE)-based viral replication assay using immortalized cells and a laboratory strain of RSV (Long). This assay evaluates the ability of a compound to inhibit viral replication.
Assay plates are prepared by seeding 2,500 HEp-2 cells (ATCC) per well of a 384-well black clear-bottom plate (Greiner Bio-One) in 20 μL of assay media (defined as DMEM supplemented with 2% heat-inactivated fetal bovine serum and 1% Penicillin/Streptomycin). Assay plates are incubated overnight at 37° C. in an incubator containing 5% CO2. The following day, a 10-point serial dilution of test compound is prepared in DMSO. Compounds are subsequently diluted with assay media and 20 μL of diluted compound (containing 1.5% DMSO) is transferred to an assay plate for evaluation of antiviral activity.
For the CPE assay, cells are infected at a Multiplicity of Infection (MOI) of 0.015 using 20 μL of RSV Long (ATCC) diluted in assay media. The DMSO concentration is constant throughout the assay plate, including the negative and positive controls. The assay plate is incubated for 3 days at 37° C. in an incubator containing 5% CO2. Cell viability is evaluated with the addition of 10 μL of CellTiter-Glo (ProMega). Luminescence is measured using an EnVision plate reader (Perkin Elmer). EC50 values are calculated using the raw data from the CPE assays.

EC50	Compound
5.8 nM	CS(=O)(=O)N1CCC2(CC1)C(=O)N(Cc1ncc3ccccc3c1C1CNC(=O)C1)c1cnccc12 (stereo not drawn) [Example 2041]
5.1 nM	CS(=O)(=O)Nc1ccc(-c2c(CN3C(=O)C4(CN(C(=O)C5(N)CC5)C4)c4ccccc43)ncc3ccccc23)cc1 [Example 132b, N-(4-(3-((1-(1-aminocyclopropanecarbonyl)-2′-oxospiro[azetidine-3,3′-indolin]-1′-yl)methyl)isoquinolin-4-yl)phenyl)methanesulfonamide]

More lines, now with the values behind:

Compound	EC50
O=C1N(Cc2ncc3ccccc3c2-c2ccc(F)nc2)c2ccccc2C12CC(NCCF)C2 (single isomer, unassigned) [Example 87-1, 3-((2-fluoroethyl)amino)-1′-((4-(6-fluoropyridin-3-yl)isoquinolin-3-yl)methyl)spiro[cyclobutane-1,3′-indolin]-2′-one]	21 nM
CS(=O)(=O)N1CCC2(CC1)C(=O)N(Cc1ncc3ccccc3c1CCCCO)c1cnccc12 [Example 37c, 1′-((4-(4-Hvdroxybutyl)isoquinolin-3-yl)methyl)-1-(methylsulfonyl)spiro[piperidine-4,3′-pyrrolo[2,3-c]pyridin]-2′(1′H)-one]	7.2 nM

same assay, conditions: human respiratory syncytial virus, HEp-2, 72 h, HEp-2 cells infected with RSV Long at MOI 0.015; 3 days at 37° C.; cell viability by CellTiter-Glo luminescence; read-out: EC50 (nm)

EC50	Compound
8.5 nM	CNC1(C(=O)N2CCC3(CC2)C(=O)N(Cc2ncc4ccccc4c2-c2ccc(C(=O)N(C)C)nc2)c2cnccc23)CC1 [Example 122, N,N-dimethyl-5-(3-((1-(1-(methylamino)cyclopropanecarbonyl)-2′-oxospiro[piperidine-4,3′-pyrrolo[2,3-c]pyridin]-1′(2′H)-yl)methyl)isoquinolin-4-yl)picolinamide]
21 nM	NC(=O)c1ccc(-c2c(CN3C(=O)C4(CCN(C(=O)[C@@H]5CC(F)(F)CN5)CC4)c4ccncc43)ncc3ccccc23)cn1 [Example 2011]
2.9 nM	COC(=O)N1CC2(C1)C(=O)N(Cc1ncc3cc(Cl)ccc3c1-c1cccnc1)c1cnccc12 [Example 161c, methyl 1′-((7-chloro-4-(pyridin-3-yl)isoquinolin-3-yl)methyl)-2′-oxo-1′,2′-dihydrospiro[azetidine-3,3′-pyrrolo[2,3-c]pyridine]-1-carboxylate]
8.1 nM	NC1(CC(=O)N2CCC3(CC2)C(=O)N(Cc2ncc4ccccc4c2-c2cccnc2)c2cnccc23)CC1 [Example 145, 1-(2-(1-Aminocyclopropyl)acetyl)-1′-((4-(pyridin-3-yl)isoquinolin-3-yl)methyl)spiro[piperidine-4,3′-pyrrolo[2,3-c]pyridin]-2′(1′H)-one]
4 nM	COC(=O)N1CC2(C1)C(=O)N(Cc1ncc3ccccc3c1-c1ccc(C(N)C(F)(F)F)nc1)c1ccccc12 (stereo not drawn) [Example 157b, methyl 1′-((4-(6-(1-amino-2,2,2-trifluoroethyl)pyridin-3-yl)isoquinolin-3-yl)methyl)-2′-oxospiro[azetidine-3,3′-indoline]-1-carboxylate]
3.9 nM	NC1(C(=O)N2CCC3(CC2)C(=O)N(Cc2ncc4ccccc4c2-c2ccc(S(N)(=O)=O)cc2)c2cnccc23)CC1 [Example 2015]
2 nM	NC1(NC(=O)N2CC3(C2)C(=O)N(Cc2ncc4ccccc4c2-c2cccnc2)c2ccccc23)CC1 [Example 155, N-(1-aminocyclopropyl)-2′-oxo-1′-((4-(pyridin-3-yl)isoquinolin-3-yl)methyl)spiro[azetidine-3,3′-indoline]-1-carboxamide]
5.4 nM	COC(=O)C1CC2(C1)C(=O)N(Cc1ncc3ccccc3c1-c1ccc(C3(N)CC3)nc1)c1cnccc12 (stereo not drawn) [Example 2002]
11 nM	NCCC(=O)N1CCC2(CC1)C(=O)N(Cc1ncc3ccccc3c1-c1cccnc1)c1cnccc12 [Example 141, 1-(3-aminopropanoyl)-1′-((4-(pyridin-3-yl)isoquinolin-3-yl)methyl)spiro[piperidine-4,3′-pyrrolo[2,3-c]pyridin]-2′(1′H)-one]
10 nM	NCC(=O)N1CCC2(CC1)C(=O)N(Cc1ncc3ccccc3c1-c1cccnc1)c1cnccc12 [Example 143, 1-(2-aminoacetyl)-1′-((4-(pyridin-3-yl)isoquinolin-3-yl)methyl)spiro[piperidine-4,3′-pyrrolo[2,3-c]pyridin]-2′(1′H)-one]
12 nM	NCC(=O)N1CC2(C1)C(=O)N(Cc1ncc3ccccc3c1-c1cccnc1)c1ccccc12 [Example 152, 1-(2-Aminoacetyl)-1′-((4-(pyridin-3-yl)isoquinolin-3-yl)methyl)spiro[azetidine-3,3′-indolin]-2′-one]
3.4 nM	CNC(=O)O[C@H]1C[C@@]2(C1)C(=O)N(Cc1ncc3ccccc3c1-c1ccc(C#N)nc1)c1ccccc12 [Example 133, (1R,3R)-1′-((4-(6-cyanopyridin-3-yl)isoquinolin-3-yl)methyl)-2′-oxospiro[cyclobutane-1,3′-indolin]-3-yl methylcarbamate]
2.8 nM	CS(=O)(=O)N1CCC2(CC1)C(=O)N(Cc1ncc3cc(F)ccc3c1-c1ccncc1)c1cnccc12 [Example 2035]
230 nM	CNC1(C(=O)N2CC3(C2)C(=O)N(Cc2ncc4ccccc4c2-c2ccc(NS(C)(=O)=O)cn2)c2ccccc23)CC1 [Example 2005]
43 nM	CS(=O)(=O)N1CCC2(CC1)C(=O)N(Cc1ncc3ccccc3c1-c1cc[nH]c1)c1cnccc12 [Example 2023]

More lines, now with the values behind:

Compound	EC50
COC(=O)N1CCC(n2c(=O)n(Cc3ncc4ccccc4c3CCCCO)c3cc(F)c(F)cc32)CC1 [Example 14c, methyl 4-(5,6-difluoro-3-((4-(4-hydroxybutyl)isoquinolin-3-yl)methyl)-2-oxo-2,3-dihydro-1H-benzo[d]imidazol-1-yl)piperidine-1-carboxylate]	75 nM
O=c1n(Cc2ncc3ccccc3c2CCCCO)c2cnccc2n1S(=O)(=O)C1CC1 [Example 22b, 1-(cyclopropylsulfonyl)-3-((4-(4-hydroxybutyl)isoquinolin-3-yl)methyl)-1H-imidazo[4,5-c]pyridin-2(3H)-one]	15 nM
CS(=O)(=O)N1CC2(C1)C(=O)N(Cc1ncc3ccccc3c1-c1cc(F)cc(F)c1)c1ccccc12 [Example 72]	5.6 nM
O=C1N(Cc2ncc3ccccc3c2-c2ccc(F)nc2)c2ccccc2C12CN(CCF)C2 [Example 86, 1-(2-fluoroethyl)-1′-((4-(6-fluoropyridin-3-yl)isoquinolin-3-yl)methyl)spiro[azetidine-3,3′-indolin]-2′-one]	20 nM
N#Cc1ccc(-c2c(CN3C(=O)C4(CN(C(=O)C5(N)CC5)C4)c4ccccc43)ncc3ccccc23)cn1 [Example 60c, 5-(3-((1-(1-Aminocyclopropanecarbonyl)-2′-oxospiro[azetidine-3,3′-indolin]-1′-yl)methyl)isoquinolin-4-yl)picolinonitrile]	25 nM
N[C@@H]1CCN(c2ccc3c(CCCCO)c(Cn4c(=O)n(C5CC5)c5ccncc54)ncc3c2)C1 [Example 32c, (R)-3-((7-(3-aminopyrrolidin-1-yl)-4-(4-hydroxybutyl)isoquinolin-3-yl)methyl)-1-cyclopropyl-1H-imidazo[4,5-c]pyridin-2(3H)-one]	5800 nM
NC1(C(=O)N2CCC3(CC2)C(=O)N(Cc2ncc4ccccc4c2CCCCO)c2cnccc23)CC1 [Example 39b, 1-(1-Aminocyclopropanecarbonyl)-1′-((4-(4-hydroxybutyl)isoquinolin-3-yl)methyl)spiro[piperidine-4,3′-pyrrolo[2,3-c]pyridin]-2′(1′H)-one]	35 nM
CS(=O)(=O)N1CCC2(CC1)C(=O)N(Cc1ncc3ccccc3c1-c1cncs1)c1cnccc12 [Example 98c]	1.9 nM
COC(=O)NC1CC2(C1)C(=O)N(Cc1ncc3ccccc3c1-c1ccc(C#N)nc1)c1ccccc12 (stereo not drawn) [Example 84-1]	7.2 nM
COC(=O)N1CC2(C1)C(=O)N(Cc1ncc3ccccc3c1-c1cnccn1)c1ccccc12 [Example 103, Methyl 2′-oxo-1′-((4-(pyrazin-2-yl)isoquinolin-3-yl)methyl)spiro[azetidine-3,3′-indoline]-1-carboxylate]	18 nM
CC(C)(C)c1ccc(-c2c(CN3C(=O)C4(CN(S(C)(=O)=O)C4)c4ccccc43)ncc3ccccc23)cc1 [Example 71, 1′-((4-(4-(Tert-butyl)phenyl)isoquinolin-3-yl)methyl)-1-(methylsulfonyl)spiro[azetidine-3,3′-indolin]-2′-one]	200 nM

same assay, conditions: human respiratory syncytial virus, HEp-2, 72 h, read-out: EC50 (nm)

Compound	EC50
CNC(=O)OC1CC2(C1)C(=O)N(Cc1ncc3ccccc3c1-c1ccc(C#N)nc1)c1ccccc12 (stereo not drawn) [Example 89, 1′-((4-(6-Cyanopyridin-3-yl)isoquinolin-3-yl)methyl)-2′-oxospiro[cyclobutane-1,3′-indolin]-3-yl methylcarbamate]	5.8 nM
CC(=O)N1CC2(C1)C(=O)N(Cc1ncc3ccccc3c1-c1cccnc1)c1ccccc12 [Example 153, 1-acetyl-1′-((4-(pyridin-3-yl)isoquinolin-3-yl)methyl)spiro[azetidine-3,3′-indolin]-2′-one]	5.5 nM
CN1CC2(C1)C(=O)N(Cc1ncc3ccccc3c1CCCCO)c1ccccc12 [Example 41, 1′-((4-(4-Hydroxybutyl)isoquinolin-3-yl)methyl)-1-methylspiro[azetidine-3,3′-indolin]-2′-one]	660 nM
